Laboratory results from US10308643B2, “Heterocyclic compound” (Takeda Pharmaceutical Company Limited, priority 2015, dated 2019).
Where a name gives a salt, the structure may show the parent alone.

Legend:
Type in all cases: biochemical
[1] = biological target: T1, HDAC9 enzyme (Homo sapiens, UniProt Q9UKV0); experiment: HDAC9 Enzyme Inhibitory Assay (HDAC-Glo class IIa); details: 1 μM test compound, wells without enzyme = 100% inhibition; for inhibition at 1 µM: read-out: HDAC9 inhibitory rate (%) (1 μM)
T1 construct: transducing full length HDAC9 gene into Sf-9 insect cells; made in house; host or cells: Sf-9 insect cells
T1 sequence (Q9UKV0 whole entry, species assumed): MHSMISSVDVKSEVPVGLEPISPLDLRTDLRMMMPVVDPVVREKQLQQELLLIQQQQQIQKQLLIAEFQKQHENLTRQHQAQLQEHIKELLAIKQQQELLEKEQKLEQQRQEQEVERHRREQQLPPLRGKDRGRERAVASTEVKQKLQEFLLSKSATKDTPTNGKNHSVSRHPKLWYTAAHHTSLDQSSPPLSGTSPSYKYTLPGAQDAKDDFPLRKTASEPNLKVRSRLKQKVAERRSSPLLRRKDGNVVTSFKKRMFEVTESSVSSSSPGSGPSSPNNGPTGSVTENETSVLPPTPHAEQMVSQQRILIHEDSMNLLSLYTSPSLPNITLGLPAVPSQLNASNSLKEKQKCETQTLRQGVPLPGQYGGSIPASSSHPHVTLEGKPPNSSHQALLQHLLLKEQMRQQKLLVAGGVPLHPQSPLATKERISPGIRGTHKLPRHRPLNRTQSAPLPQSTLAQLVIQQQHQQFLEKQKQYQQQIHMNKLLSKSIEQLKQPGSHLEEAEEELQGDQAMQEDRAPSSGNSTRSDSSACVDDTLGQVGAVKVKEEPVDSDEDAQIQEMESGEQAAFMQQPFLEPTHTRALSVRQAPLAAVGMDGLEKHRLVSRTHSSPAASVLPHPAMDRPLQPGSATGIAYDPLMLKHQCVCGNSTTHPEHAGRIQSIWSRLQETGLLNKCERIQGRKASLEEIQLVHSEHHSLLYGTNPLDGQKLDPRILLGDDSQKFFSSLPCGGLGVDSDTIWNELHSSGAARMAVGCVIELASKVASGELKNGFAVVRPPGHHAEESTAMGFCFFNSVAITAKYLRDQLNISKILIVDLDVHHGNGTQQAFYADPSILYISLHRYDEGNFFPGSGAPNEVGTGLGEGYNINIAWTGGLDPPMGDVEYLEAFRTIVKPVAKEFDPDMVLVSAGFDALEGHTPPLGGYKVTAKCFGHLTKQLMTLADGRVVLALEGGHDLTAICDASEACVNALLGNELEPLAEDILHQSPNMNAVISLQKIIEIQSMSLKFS
Outline: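 Full-length human HDAC9 from Sf-9 cells, Ni-NTA purified, preincubated with compound for 60 min at room temperature in Tris-HCl pH 7.5 buffer (MgCl2, KCl, NaCl, glutathione, Tween-20). HDAC-Glo class IIa substrate-developer added; luminescence read after 20 min, with no-enzyme wells defining 100% inhibition.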

[2] = biological target: T2, HDAC1 enzyme (Homo sapiens, UniProt Q13547); experiment: HDAC1/6 Enzyme Inhibitory Assay (HDAC-Glo I/II Assay kit), HDAC1; details: 1 μM test compound, wells without enzyme = 100% inhibition; for inhibition at 1 µM: read-out: HDAC1 inhibitory rate (%) (1 μM)
T2 construct: transducing full length HDAC1 and HDAC6 genes into Sf-9 insect cells; GST; purchased SignalChem; host or cells: Sf-9 insect cells
T2 sequence (Q13547 whole entry): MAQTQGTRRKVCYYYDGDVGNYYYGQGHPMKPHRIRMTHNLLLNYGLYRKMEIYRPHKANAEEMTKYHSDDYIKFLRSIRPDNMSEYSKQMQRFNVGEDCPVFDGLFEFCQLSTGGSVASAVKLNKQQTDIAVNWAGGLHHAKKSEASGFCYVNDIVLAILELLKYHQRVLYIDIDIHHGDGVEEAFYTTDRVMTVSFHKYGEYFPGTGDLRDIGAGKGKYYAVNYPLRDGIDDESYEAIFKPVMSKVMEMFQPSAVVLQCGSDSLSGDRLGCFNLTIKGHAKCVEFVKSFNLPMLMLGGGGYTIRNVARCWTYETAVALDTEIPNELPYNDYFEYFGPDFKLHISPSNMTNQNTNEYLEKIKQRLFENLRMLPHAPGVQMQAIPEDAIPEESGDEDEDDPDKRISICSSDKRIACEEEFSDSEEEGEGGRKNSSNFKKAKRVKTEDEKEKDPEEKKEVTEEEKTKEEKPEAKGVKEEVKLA
Outline: (§1)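 Full-length human HDAC1 or HDAC6, GST-purified from Sf-9 cells, was preincubated with compound for 60 min at room temperature in Tris-HCl pH 7.5 buffer with MgCl2, KCl, NaCl, glutathione and Tween-20. HDAC-Glo I/II substrate-developer was then added and reacted for 20 min before luminescence was read. Inhibition was set relative to no-enzyme wells as 100% inhibition.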

[3] = biological target: T3, HDAC6 enzyme (Homo sapiens, UniProt Q9UBN7); experiment: HDAC1/6 Enzyme Inhibitory Assay (HDAC-Glo I/II Assay kit), HDAC6; details: 1 μM test compound, wells without enzyme = 100% inhibition; for inhibition at 1 µM: read-out: HDAC6 inhibitory rate (%) (1 μM)
T3 construct: transducing full length HDAC1 and HDAC6 genes into Sf-9 insect cells; GST; purchased SignalChem; host or cells: Sf-9 insect cells
T3 sequence (Q9UBN7 1-1215): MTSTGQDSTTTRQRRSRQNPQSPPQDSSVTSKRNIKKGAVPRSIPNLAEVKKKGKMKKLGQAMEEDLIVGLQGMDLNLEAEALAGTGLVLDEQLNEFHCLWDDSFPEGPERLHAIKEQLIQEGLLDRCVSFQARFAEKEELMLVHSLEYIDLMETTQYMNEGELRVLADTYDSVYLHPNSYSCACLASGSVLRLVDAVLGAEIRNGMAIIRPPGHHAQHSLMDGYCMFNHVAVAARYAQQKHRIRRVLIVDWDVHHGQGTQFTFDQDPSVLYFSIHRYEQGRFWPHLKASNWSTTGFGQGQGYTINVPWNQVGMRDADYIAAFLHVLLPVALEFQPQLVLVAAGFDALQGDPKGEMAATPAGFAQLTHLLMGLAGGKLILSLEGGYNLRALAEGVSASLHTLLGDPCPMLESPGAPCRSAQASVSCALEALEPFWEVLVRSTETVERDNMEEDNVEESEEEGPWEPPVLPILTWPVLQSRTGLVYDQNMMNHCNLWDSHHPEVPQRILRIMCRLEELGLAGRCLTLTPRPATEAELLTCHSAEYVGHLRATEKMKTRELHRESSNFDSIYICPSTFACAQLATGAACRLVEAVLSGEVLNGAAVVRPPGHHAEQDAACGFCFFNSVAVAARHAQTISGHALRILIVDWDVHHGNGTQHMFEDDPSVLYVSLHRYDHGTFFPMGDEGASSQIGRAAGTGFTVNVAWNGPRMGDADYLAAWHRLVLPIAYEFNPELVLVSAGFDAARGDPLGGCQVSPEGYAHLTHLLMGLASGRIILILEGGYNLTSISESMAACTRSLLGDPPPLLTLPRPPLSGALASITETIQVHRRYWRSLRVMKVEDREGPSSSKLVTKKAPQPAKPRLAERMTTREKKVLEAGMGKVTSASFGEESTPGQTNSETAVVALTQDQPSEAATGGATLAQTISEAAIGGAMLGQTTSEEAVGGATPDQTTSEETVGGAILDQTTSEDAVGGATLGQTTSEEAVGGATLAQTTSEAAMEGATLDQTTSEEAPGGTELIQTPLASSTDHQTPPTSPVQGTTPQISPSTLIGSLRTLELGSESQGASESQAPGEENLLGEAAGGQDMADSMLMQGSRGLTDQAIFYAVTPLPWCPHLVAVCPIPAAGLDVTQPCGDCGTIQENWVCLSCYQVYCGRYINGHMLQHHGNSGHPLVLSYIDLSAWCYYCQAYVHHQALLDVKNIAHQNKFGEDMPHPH
Outline: as §1

Row | SMILES | inhibition at 1 µM [1] | HDAC1 inhibitory rate (%) (1 μM) [2] | inhibition at 1 µM [3] | inhibition at 1 µM [2] | HDAC9 inhibitory rate (%) (1 μM) [1] | HDAC6 inhibitory rate (%) (1 μM) ([3]; 1 µM) | HDAC6 inhibitory rate (%) (1 μM) [3]
1 | O=C(N[C@@H]1CCCC[C@H]1N1Cc2ccc(-c3noc(C(F)(F)F)n3)cc2C1=O)C1CCCCCO1 (stereo partly drawn) [Example 119, N-((1R,2R)-2-(1-oxo-6-(5-(trifluoromethyl)-1,2,4-oxadiazol-3-yl)-1,3-dihydro-2H-isoindol-2-yl)cyclohexyl)oxepane-2-carboxamide] | 38% | 4% | 100% | – | – | – | –
2 | O=C(c1ccccc1)N1CCCC(N2Cc3ncc(-c4noc(C(F)(F)F)n4)cc3C2=O)C1 (stereo not drawn) [Example 40, 6-(1-benzoylpiperidin-3-yl)-3-(5-(trifluoromethyl)-1,2,4-oxadiazol-3-yl)-6,7-dihydro-5H-pyrrolo[3,4-b]pyridin-5-one] | 97% | – | 95% | 56% | – | – | –
3 | O=C1c2cc(-c3noc(C(F)(F)F)n3)ccc2CN1[C@@H]1CCCC[C@H]1NC(=O)C1(CO)CC1 [Example 153, 1-(hydroxymethyl)-N-((1R,2R)-2-(1-oxo-6-(5-(trifluoromethyl)-1,2,4-oxadiazol-3-yl)-1,3-dihydro-2H-isoindol-2-yl)cyclohexyl) cyclopropanecarboxamide] | 52% | – | 100% | 6% | – | – | –
4 | CC(C)(C)OC(=O)N1CC[C@@H](N2Cc3ccc(-c4noc(C(F)(F)F)n4)cc3C2=O)[C@H](c2ccccc2)C1 [Example 13, tert-butyl (3R,4R)-4-(1-oxo-6-(5-(trifluoromethyl)-1,2,4-oxadiazol-3-yl)-1,3-dihydro-2H-isoindol-2-yl)-3-phenylpiperidine-1-carboxylate] | 84% | – | 101% | 53% | – | – | –
5 | O=C(NC1COC1)N[C@@H]1CCCC[C@H]1N1Cc2ccc(-c3noc(C(F)(F)F)n3)cc2C1=O [Example 165, 1-oxetan-3-yl-3-((1R,2R)-2-(1-oxo-6-(5-(trifluoromethyl)-1,2,4-oxadiazol-3-yl)-1,3-dihydro-2H-isoindol-2-yl)cyclohexyl)urea] | 43% | – | 96% | 6% | – | – | –
6 | CC1(C(=O)N[C@@H]2CCCC[C@H]2N2Cc3ccc(-c4noc(C(F)(F)F)n4)cc3C2=O)COC1 [Example 42, 3-methyl-N-((1R,2R)-2-(1-oxo-6-(5-(trifluoromethyl)-1,2,4-oxadiazol-3-yl)-1,3-dihydro-2H-isoindol-2-yl)cyclohexyl)oxetane-3-carboxamide] | 41% | – | 100% | 15% | – | – | –
7 | O=C(N[C@@H]1CCCC[C@H]1N1Cc2ccc(-c3noc(C(F)(F)F)n3)cc2C1=O)N1CCS(=O)(=O)CC1 [Example 168, N-((1R,2R)-2-(1-oxo-6-(5-(trifluoromethyl)-1,2,4-oxadiazol-3-yl)-1,3-dihydro-2H-isoindol-2-yl)cyclohexyl)thiomorpholine-4-carboxamide 1,1-dioxide] | 23% | – | 96% | 5% | – | – | –
8 | O=C1c2cc(-c3noc(C(F)(F)F)n3)ccc2CN1C1CCNC[C@@H]1c1ccccc1 (stereo partly drawn) [Example 22, 2-((3S,4R)-3-phenyipiperidin-4-yl)-6-(5-(trifluoromethyl)-1,2,4-oxadiazol-3-yl)isoindolin-1-one, hydrochloride] | 96% | – | 100% | 85% | – | – | –
9 | O=C(N[C@@H]1CCCC[C@H]1N1Cc2ccc(-c3noc(C(F)(F)F)n3)cc2C1=O)N1C2COCC1C2 [Example 144, N-((1R,2R)-2-(1-oxo-6-(5-(trifluoromethyl)-1,2,4-oxadiazol-3-yl)-1,3-dihydro-2H-isoindol-2-yl)cyclohexyl)-3-oxa-6-azabicyclo[3.1.1]heptane-6-carboxamide] | 31% | – | 100% | 3% | – | – | –
10 | CC1(C(=O)N[C@@H]2CCCC[C@H]2N2Cc3ccc(-c4noc(C(F)(F)F)n4)cc3C2=O)CC1(F)F (stereo partly drawn) [Example 170, 2,2-difluoro-1-methyl-N-((1R,2R)-2-(1-oxo-6-(5-(trifluoromethyl)-1,2,4-oxadiazol-3-yl)-1,3-dihydro-2H-isoindol-2-yl)cyclohexyl) cyclopropanecarboxamide] | – | 16% | – | – | 64% | 100% | –
11 | CC(C)(C)OC(=O)N[C@H]1CCCC[C@H]1N1Cc2ccc(-c3noc(C(F)(F)F)n3)cc2C1=O [Example 85, tert-butyl ((1S,2R)-2-(1-oxo-6-(5-(trifluoromethyl)-1,2,4-oxadiazol-3-yl)-1,3-dihydro-2H-isoindol-2-yl)cyclohexyl)carbamate] | 67% | – | 98% | 41% | – | – | –
12 | O=C1c2cc(-c3noc(C(F)(F)F)n3)ccc2CN1[C@@H]1CCc2ccccc21 [Example 25, 2-((1R)-2,3-dihydro-1H-inden-1-yl)-6-(5-(trifluoromethyl)-1,2,4-oxadiazol-3-yl)isoindolin-1-one] | 39% | – | 92% | 7% | – | – | –
13 | CC1CC1C(=O)N[C@@H]1CCCC[C@H]1N1Cc2ccc(-c3noc(C(F)(F)F)n3)cc2C1=O (stereo partly drawn) [Example 102, 2-methyl-N-((1R,2R)-2-(1-oxo-6-(5-(trifluoromethyl)-1,2,4-oxadiazo-3-yl)-1,3-dihydro-2H-isoindol-2-yl)cyclohexyl) cyclopropanecarboxamide] | 52% | – | 99% | 7% | – | – | –
14 | O=C1c2cc(-c3noc(C(F)(F)F)n3)ccc2CN1[C@@H]1CCOC[C@H]1c1ccccc1 (relative stereo) [Example 35, trans-2-(3-phenyltetrahydro-2H-pyran-4-yl)-6-(5-(trifluoromethyl)-1,2,4-oxadiazol-3-yl)isoindolin-1-one] | – | 50% | – | – | 91% | – | 99%
15 | CC(C)(C)OC(=O)N[C@H]1CCCC[C@@H]1N1Cc2ccc(-c3noc(C(F)(F)F)n3)cc2C1=O [Example 27, tert-butyl ((1S,2S)-2-(1-oxo-6-(5-(trifluoromethyl)-1,2,4-oxadiazol-3-yl)-1,3-dihydro-2H-isoindol-2-yl)cyclohexyl)carbamate] | 76% | – | 36% | 16% | – | – | –
16 | O=C(N[C@@H]1CCCC[C@H]1N1Cc2ccc(-c3noc(C(F)(F)F)n3)cc2C1=O)C1CCC1 [Example 97, N-((1R,2R)-2-(1-oxo-6-(5-(trifluoromethyl)-1,2,4-oxadiazol-3-yl)-1,3-dihydro-2H-isoindol-2-yl)cyclohexyl) cyclobutanecarboxamide] | 59% | – | 99% | 14% | – | – | –
17 | CN(C)C(=O)c1ccccc1N1Cc2ccc(-c3noc(C(F)(F)F)n3)cc2C1=O [Example 188, N,N-dimethyl-2-(1-oxo-6-(5-(trifluoromethyl)-1,2,4-oxadiazol-3-yl)-1,3-dihydro-2H-isoindol-2-yl)benzamide] | 45% | – | 95% | 10% | – | – | –
